pIC50: −log10 of the molar value.
Experiments:
[1] = system: HEK-293T; experiment: MTT cytotoxic activity assay, HEK-293T cells, 72 h; assay type: cell-based; conditions: HEK-293T healthy human embryonic kidney cell line
Experimental: (§1) The complexes were tested in human lung cancer and normal embryonic kidney cell lines for 72 h.
Cytotoxic activity studies of compounds (L, L-Cu, L-Co, and L-Fe) were conducted according to the literature.[60] Human lung epithelial carcinoma cells (A549; ATCC CCL-185) and healthy human embryonic kidney cells (HEK-293T) were cultured in Dulbecco’s modified Eagle’s medium-high-glucose supplemented with 10% fetal bovine serum and 1% GlutaMAX in a CO2 incubator at 37 °C. Cells seeded in 96-well plates were exposed to 200, 100, 50, and 25 μM of compounds for 72 h. The MTT stock solution (50 μL, 5 mg/mL) was added to each well. Absorbance was measured using an Epoch 2 ELISA plate reader at 590 nm. The IC50 values were calculated using GraphPad Prism Software version 5.

[2] = system: A549; experiment: MTT cytotoxic activity assay, A549 cells, 72 h; assay type: cell-based, human; conditions: for pIC50: A549 human lung cancer cell line, MTT
Experimental: as §1
The MTT stock solution (50 μL, 5 mg/mL) was added to each well. Absorbance was measured using an Epoch 2 ELISA plate reader at 590 nm. The IC50 values were calculated using GraphPad Prism Software version 5.

[3] = Dissolution in cytotoxicity assay medium (0.5% DMSO, DMEM); assay type: physicochemical
Description: When the ligand and L-Cu were compared, the cytotoxic effect of L-Cu was almost 17 times more cytotoxic than that of the ligand, including 2-hydroxybenzylidene and 4-fluorobenzohydrazide groups. […] However, the effect of the other two metal complexes (L-Co and L-Fe) and the ligand used as the starting material on the growth of A549 cells was very low compared to that of the positive control drug.

[4] = A549, 50 μM concentration of compound, 72 h
[5] = A549, 200 μM concentration of compound, 72 h

| SMILES | pIC50 [1] | pIC50 ([2]; 72 h) | viability at 50 µM ([2]; Homo sapiens, A549, 50 μM concentration of compound, 72 h, read-out: Cell viability) [%] | viability at 200 µM ([2]; Homo sapiens, A549, 200 μM concentration of compound, 72 h, read-out: Cell viability rate) [%] | Cell viability [2, 4] [%] | Cell viability rate [2, 5] [%] | Effectiveness relative to cisplatin ([2]; A549 cells) | Times more cytotoxic than the ligand ([2]; L-Cu compared with ligand L) [times] | Solubility in assay medium [3] |
| --- | --- | --- | --- | --- | --- | --- | --- | --- | --- |
| O=C(NN=Cc1ccccc1O)c1ccc(F)cc1 [L, 4-Fluoro-N′-(2-hydroxybenzylidene)benzohydrazide] | 4.74 | 4.44 | 44.9 | 8.51 |  |  |  |  |  |
| O=C(NN=Cc1ccccc1[O][Cu][O]c1ccccc1C=NNC(=O)c1ccc(F)cc1)c1ccc(F)cc1 [L-Cu] | 5.63 | 5.67 |  |  | 5.10 | 4.66 | approximately twice | ~17 |  |
| O=C(NN=Cc1ccccc1[O][Fe][O]c1ccccc1C=NNC(=O)c1ccc(F)cc1)c1ccc(F)cc1 [L-Fe] | 4.16 | 4.10 |  |  | 92.96 | 5.72 |  |  |  |
| O.O=C(NN=Cc1ccccc1[O-])c1ccc(F)cc1.O=C(NN=Cc1ccccc1[O-])c1ccc(F)cc1.[Ni+2] [L-Ni] |  |  |  |  |  |  |  |  | not fully dissolved in 0.5% DMSO and was precipitated in DMEM |
| N.N.[Cl][Pt][Cl] [cisplatin, reference compound] | 5.58 | 5.37 |  |  |  |  |  |  |  |

— PMC11425624, “Synthesis of Novel Cu(II), Co(II), Fe(II), and Ni(II) Hydrazone Metal Complexes as Potent Anticancer Agents: Spectroscopic, DFT, Molecular Docking, and MD Simulation Studies” (ACS Omega, 2024)
